Among the data in patent US8822430B2 (Gilead Sciences, Inc., priority 2009, dated 2014) are EC50 values, retold here.

The experiment has as its system HCV 1b RLuc cells (dicistronic genotype 1b Con1 replicon). Kind of experiment: Renilla luciferase (RLuc)-based HCV replicon reporter assay. The following applies: Hepatitis C virus, 72 h, HCV 1b RLuc replicon, 72 hours; read-out: Activity (antiviral potency [EC50]). It counts as cell-based, HCV genotype 1b. The protocol: Antiviral potency (EC50) was determined using a Renilla luciferase (RLuc)-based HCV replicon reporter assay. To perform the assay, HCV 1b RLuc cells (harboring a dicistronic genotype 1b Con1 replicon that encodes a RLuc reporter), or HCV 1a RLuc cells (harboring a dicistronic genotype 1a H77 replicon that encodes a RLuc reporter), were dispensed into 384-well plates. Compounds were re-suspended in DMSO at a concentration of 10 mM and serially diluted in DMSO using an automated pipeting instrument. Serially diluted compounds were mixed with cell culture media and added to the seeded cells. DMSO was used as a negative (solvent) control, and the protease inhibitor ITMN-191 was included at a concentration >100×EC50 as a positive control. 72 hours later, cells were lysed and Renilla luciferase activity quantified as recommended by the manufacturer (Promega-Madison, Wis.). Non-linear regression was performed to calculate EC50 values.
Biological data (antiviral potency [EC50] was determined using a Renilla luciferase (RLuc)-based HCV replicon reporter assay—HCV 1b RLuc) for representative compounds of the invention is provided in the following table. These compounds can be prepared using procedures similar to those described above.
For orientation: A replicon is a self-replicating genome or part of one, used to study replication in cells.
One may read the EC50 as the concentration giving half of the maximal effect. For `COC(=O)N[C@H](C(=O)N1CCC[C@H]1c1ncc(-c2ccc(-c3ccc(-c4cnc([C@@H]5C[C@@H](COC(F)F)CN5C(=O)[C@@H](NC(=O)OC)C(C)C)[nH]4)cc3)cc2)[nH]1)C(C)C`, the EC50 amounted to 0.0129 nM.
The value for `COC(=O)N[C@H](C(=O)N1CC2(CC2)C[C@H]1c1ncc(-c2ccc(-c3ccc4cc(-c5cnc([C@@H]6[C@H]7CC[C@H](C7)N6C(=O)[C@@H](NC(=O)OC)C(C)(C)OC)[nH]5)ccc4c3)cc2)[nH]1)C(C)C` was 0.0155 nM; that for `COC(=O)N[C@H](C(=O)N1CCC[C@H]1c1ncc(-c2ccc3cc(-c4ccc(-c5cnc([C@@H]6CCCN6C(=O)[C@H](OC(=O)N(C)C)c6ccccc6)[nH]5)cc4)ccc3c2)[nH]1)C(C)C` was 0.0083 nM; that for `COC(=O)N[C@@H](CCC(F)(F)F)C(=O)N1CCC[C@H]1c1ncc(-c2ccc(-c3ccc(-c4cnc([C@@H]5CCCN5C(=O)[C@H](CCC(F)(F)F)NC(=O)OC)[nH]4)cc3)cc2)[nH]1` was 0.0635 nM.
On to `COC(=O)N[C@H](C(=O)N1CCC[C@H]1c1ncc(-c2ccc(-c3ccc(-c4ccc(-c5cnc([C@@H]6CCCN6C(=O)[C@@H](NC(=O)OC)C(C)C)[nH]5)cc4)s3)cc2)[nH]1)C(C)C`, for which the EC50 turned out to be 0.0989 nM.
The value for `COC(=O)N[C@H](C(=O)N1CCC[C@H]1c1ncc(-c2ccc(-c3ccc(-c4cnc([C@@H]5CN(CC(F)(F)F)CN5C(=O)[C@@H](NC(=O)OC)C(C)C)[nH]4)cc3)cc2)[nH]1)C(C)C` was 0.0074 nM; that for `COC(=O)N[C@H](C(=O)N1CCC[C@H]1c1ncc(-c2ccc(-c3ccc(-c4ccc5nc([C@@H]6CCCN6C(=O)[C@@H](NC(=O)OC)C(C)C)[nH]c5c4)cc3)cc2)[nH]1)C(C)C` was 0.0054 nM.
The result for `COC(=O)N[C@@H](C)C(=O)N1CCC[C@H]1c1ncc(-c2ccc3c(c2)sc2cc(-c4cnc([C@@H]5[C@H]6CC[C@H](C6)N5C(=O)[C@H](C)NC(=O)OC)[nH]4)ccc23)[nH]1` reads 0.0185 nM; that for `COC(=O)N[C@H](C(=O)N1C[C@@H](C#N)C[C@H]1c1ncc(-c2ccc3cc(-c4ccc(-c5cnc([C@@H]6[C@H]7CC[C@H](C7)N6C(=O)[C@@H](NC(=O)OC)C(C)C)[nH]5)cc4)ccc3c2)[nH]1)C(C)C`, 0.0097 nM.
The result for `COC(=O)N[C@H](C(=O)N1CCC[C@H]1c1ncc(-c2ccc3cc(-c4ccc(-c5cnc([C@@H]6CCCN6C(=O)[C@@H](NC(=O)OC)C6CCCCC6)[nH]5)cc4)ccc3c2)[nH]1)C(C)C` reads 0.0092 nM.
Regarding `COC(=O)N[C@H](C(=O)N1CCC[C@H]1c1ncc(-c2ccc3cc(-c4ccc(-c5cnc([C@@H]6C[C@H](C#N)CN6C(=O)[C@@H](NC(=O)OC)C(C)C)[nH]5)cc4)ccc3c2)[nH]1)C(C)C`, the EC50 was found to be 0.0067 nM.
Take `COC(=O)N[C@H](C(=O)N1CCC[C@H]1c1ncc(-c2ccc(-c3ccc4cc(-c5cnc([C@@H]6CCCN6C(=O)[C@@H](NC(=O)OC)C(C)C)[nH]5)ccc4c3)cc2)[nH]1)c1ccccc1`: the EC50 worked out at 0.0272 nM.
`COC(=O)N[C@H](C(=O)N1CCC[C@H]1c1ncc(-c2ccc3cc(-c4ccc(-c5cnc([C@@H]6CCCN6C(=O)[C@@H](NC(=O)OC)C6CCOCC6)[nH]5)cc4)ccc3c2)[nH]1)C(C)C`: the EC50 was 0.0131 nM.
For the compound `COC(=O)N[C@H](C(=O)N1CCC[C@H]1C(=O)NCc1ccc(-c2ccc(-c3cnc([C@@H]4CCCN4C(=O)[C@@H](NC(=O)OC)C(C)C)[nH]3)cc2)cc1)C(C)C`, the EC50 worked out at 1.4 nM.
The value for `COC(=O)N[C@H](C(=O)N1CCC[C@H]1c1ncc(-c2ccc(-c3ccn(-c4cnc([C@@H]5CCCN5C(=O)[C@@H](NC(=O)OC)C(C)C)[nH]4)c(=O)c3)cc2)[nH]1)C(C)C` was 15.9 nM; that for `COC(=O)N[C@H](C(=O)N1CCC[C@H]1c1ncc(-c2ccc(C#Cc3ccc(-c4cnc([C@@H]5CN(S(=O)(=O)N(C)C)CCN5C(=O)[C@@H](NC(=O)OC)C(C)C)[nH]4)cc3)cc2)[nH]1)C(C)C` was 0.053 nM; that for `CC[C@H](C)[C@H](NC(=O)OC)C(=O)N1CCC[C@H]1c1ncc(C#Cc2ccc3cc(-c4cnc([C@@H]5CCCN5C(=O)[C@@H](NC(=O)OC)[C@@H](C)CC)[nH]4)ccc3c2)[nH]1` was 0.0147 nM.
In the case of `COC(=O)N[C@H](C(=O)N1CCC[C@H]1c1ncc(-c2ccc3cc(-c4ccc(-c5cnc([C@@H]6CCCN6C(=O)[C@H](NC(=O)OC)C6CCCCC6)[nH]5)cc4)ccc3c2)[nH]1)C(C)C`, the EC50 came to 0.0972 nM.
The result for `COC(=O)N[C@H](C(=O)N1CC2(CC2)C[C@H]1c1ncc(-c2ccc(-c3ccc4cc(-c5cnc([C@@H]6[C@H]7CC[C@H](C7)N6C(=O)[C@@H](NC(=O)OC)C6CC6)[nH]5)ccc4c3)cc2)[nH]1)C(C)C` reads 0.0534 nM; that for `COC(=O)N[C@H](C(=O)N1CCC[C@H]1c1ncc(-c2ccc(-c3ccc(-c4cnc([C@@H]5CN(C(=O)OC)CN5C(=O)[C@@H](NC(=O)OC)C(C)C)[nH]4)cc3)cc2)[nH]1)C(C)C`, 0.03 nM.
The value for `COC(=O)N[C@H](C(=O)N1CCC[C@H]1c1ncc(-c2ccc3cc(-c4ccc(-c5cnc([C@@H]6CCCN6C(=O)[C@H](NC(=O)OC)c6ccsc6)[nH]5)cc4)ccc3c2)[nH]1)C(C)C` was 0.0157 nM; that for `COC(=O)N[C@H](C(=O)N1CCC[C@H]1c1ncc(-c2cc3c(C)c4sc(-c5cnc([C@@H]6CCCN6C(=O)[C@@H](NC(=O)OC)C(C)C)[nH]5)cc4c(C)c3s2)[nH]1)C(C)C` was 0.0166 nM; that for `COC(=O)N[C@H](C(=O)N1CCC[C@H]1c1ncc(-c2ccc(C#Cc3ccc(-c4cnc([C@@H]5CN(C(=O)OC(C)(C)C)CCN5C(=O)[C@@H](NC(=O)OC)C(C)C)[nH]4)cc3)cc2)[nH]1)C(C)C` was 4.73 nM.
The result for `COC(=O)NC(C(=O)N1CCC[C@H]1c1ncc(-c2ccc(-c3ccc4cc(-c5cnc([C@@H]6CCCN6C(=O)[C@@H](NC(=O)OC)C(C)C)[nH]5)ccc4c3)cc2)[nH]1)c1ccccc1` (stereo partly drawn) reads 0.0097 nM; that for `COC(=O)N[C@H](C(=O)N1CCC[C@H]1c1ncc(-c2ccc(-c3ccc(-c4cnc([C@@H]5CCCN5C(=O)[C@@H](NC(=O)OC)C(C)C)[nH]4)cc3)cc2)[nH]1)C(C)C`, 0.0719 nM; that for `COC(=O)N[C@H](C(=O)N1CCC[C@H]1c1ncc(C#Cc2ccc(-c3ccc(-c4cnc([C@@H]5CCCN5C(=O)[C@@H](NC(=O)OC)C(C)C)[nH]4)cc3)cc2)[nH]1)C(C)C`, 0.0115 nM.
As for `COC(=O)N[C@H](C(=O)N1OC2(CCC2)C[C@H]1c1ncc(-c2ccc(-c3ccc(-c4cnc([C@@H]5CC6(CCC6)ON5C(=O)[C@@H](NC(=O)OC)C(C)C)[nH]4)cc3)cc2)[nH]1)C(C)C`, the EC50 is 0.0054 nM.
The value for `COC(=O)N[C@H](C(=O)N1CC2(CC2)C[C@H]1c1ncc(-c2ccc3cc(-c4ccc(-c5cnc([C@@H]6SCCN6C(=O)[C@@H](NC(=O)OC)C(C)C)[nH]5)cc4)ccc3c2)[nH]1)C(C)C` was 0.0192 nM; that for `COC(=O)N[C@H](C(=O)N1CCC[C@H]1c1ncc(-c2ccc(-c3ccc4cc(-c5cnc([C@@H]6CCCN6C(=O)[C@@H](NC(=O)OC)C6CCOCC6)[nH]5)ccc4c3)cc2)[nH]1)C(C)C` was 0.0193 nM; that for `COC(=O)N[C@H](C(=O)N1CCC[C@H]1c1ncc(-c2ccc(Oc3ccc(-c4cnc([C@@H]5CCCN5C(=O)[C@@H](NC(=O)OC)C(C)C)[nH]4)cc3)cc2)[nH]1)C(C)C` was over 21.3 nM.
The value for `COC(=O)N[C@H](C(=O)N1CCC[C@H]1c1ncc(-c2ccc(-c3ccc(-c4cnc([C@H]5CC6(CCC6)ON5C(=O)[C@@H](NC(=O)OC)C(C)C)[nH]4)cc3)cc2)[nH]1)C(C)C` was 0.11 nM.
The value for `COC(=O)N[C@H](C(=O)N1CC2(CC2)C[C@H]1c1ncc(-c2ccc3cc(-c4ccc(-c5cnc([C@@H]6[C@H]7CC[C@H](C7)N6C(=O)[C@@H](NC(=O)OC)C(C)OC)[nH]5)cc4)ccc3c2)[nH]1)C(C)OC` (stereo partly drawn) was 0.0201 nM.
As to `COC(=O)N[C@H](C(=O)N1CCC[C@H]1c1ncc(-c2ccc(-c3ccc(-c4cnc(CN5CCC[C@@H](NC(=O)OC)C5=O)[nH]4)cc3)cc2)[nH]1)C(C)C`, the EC50 is 0.239 nM.
The result for `COC(=O)N[C@H](C(=O)N1CC2(CC2)C[C@H]1c1ncc(-c2ccc3cc(-c4ccc(-c5cnc([C@@H]6[C@H]7CC[C@H](C7)N6C(=O)[C@@H](NC(=O)OC)C6CCOCC6)[nH]5)cc4)ccc3c2)[nH]1)C1CCOCC1` reads 0.0255 nM; that for `COC(=O)N[C@H](C(=O)N1CCC[C@H]1c1ncc(-c2ccc(-c3ccc4nc([C@@H]5CCCN5C(=O)[C@@H](NC(=O)OC)C(C)C)[nH]c4c3)cc2)[nH]1)C(C)C`, 0.0372 nM; that for `COC(=O)N[C@H](C(=O)N1CCC[C@H]1c1ncc(-c2ccc(C#Cc3ccc(-c4cnc([C@@H]5CN(C(C)=O)CCN5C(=O)[C@@H](NC(=O)OC)C(C)C)[nH]4)cc3)cc2)[nH]1)C(C)C`, 0.204 nM.
In the case of `COC(=O)N[C@H](C(=O)N1C[C@@H](C#N)C[C@H]1c1ncc(-c2ccc3c(c2)C(F)(F)c2cc(-c4ccc5nc([C@@H]6[C@H]7CC[C@H](C7)N6C(=O)[C@@H](NC(=O)OC)C(C)C)[nH]c5c4)ccc2-3)[nH]1)C(C)C`, the EC50 stood at 0.0059 nM.
The result for `COC(=O)N[C@H](C(=O)N1CCC[C@H]1c1ncc(C23CCC(c4ccc(-c5cnc([C@@H]6CCCN6C(=O)[C@H](NC(=O)OC)C(C)C)[nH]5)cc4)(CC2)CC3)[nH]1)C(C)C` reads 39.7 nM; that for `COC(=O)N[C@H](C(=O)N1CN(C(=O)OC(C)(C)C)C[C@H]1C(=O)NCC(=O)c1ccc(-c2ccc(-c3cnc([C@@H]4CCCN4C(=O)[C@@H](NC(=O)OC)C(C)C)[nH]3)cc2)cc1)C(C)C`, 3.41 nM.
